The record followed here is patent US20100113460A1, “Organic Compounds” (Givaudan SA, priority 2007, published 2010).

The first series concerns the target T1, CYP2A13 (Homo sapiens, UniProt Q16696).
T1 sequence (Q16696 1-494): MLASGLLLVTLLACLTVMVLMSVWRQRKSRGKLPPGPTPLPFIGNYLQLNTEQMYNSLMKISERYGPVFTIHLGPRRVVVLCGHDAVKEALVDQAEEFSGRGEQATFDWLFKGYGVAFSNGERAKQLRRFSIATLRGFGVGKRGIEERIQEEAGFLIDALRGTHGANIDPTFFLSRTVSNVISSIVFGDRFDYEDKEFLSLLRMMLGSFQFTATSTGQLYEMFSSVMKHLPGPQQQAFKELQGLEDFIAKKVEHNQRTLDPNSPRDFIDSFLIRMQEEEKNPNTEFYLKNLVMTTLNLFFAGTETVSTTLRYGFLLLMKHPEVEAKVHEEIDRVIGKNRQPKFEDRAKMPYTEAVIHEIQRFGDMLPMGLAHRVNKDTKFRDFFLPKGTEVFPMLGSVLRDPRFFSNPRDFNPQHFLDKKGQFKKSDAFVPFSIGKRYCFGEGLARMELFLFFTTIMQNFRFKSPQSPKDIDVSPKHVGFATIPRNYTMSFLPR
The series can be described thus: CYP2A13 inhibition, coumarin to 7-hydroxy-coumarin (Umbelliferone) fluorescence assay in microsomes.
Conditions: not given
On to `CC/C=C\CC1CCCC(=O)O1` (stereo not shown) [Compound ID 22, (Z)-6-(pent-2-enyl)tetrahydro-2H-pyran-2-one], for which the IC50 (usually the concentration needed to halve the response being measured) is 3.3 µM.
As for `c1cnc2c(c1)CCCCCCCCCC2` [Compound ID 24, 5,6,7,8,9,10,11,12,13,14-decahydrocyclododeca[b]pyridine], it took 3.5 µM to reach half-maximal inhibition (IC50).
The compound `CCCCCCN1C(=O)CCC1C` (stereo not shown) [Compound ID 48] yielded an IC50 of 7.4 µM.
Regarding `CCCCCC1C(=O)C(C)CC1C(=O)OC` (stereo not shown) [Compound ID 50, Methyl 4-methyl-3-oxo-2-pentylcyclopentanecarboxylate], it took 7.8 µM to reach half-maximal inhibition (IC50).
On the same count and under the same terms, under `CCCCC1OC(=O)CC1C` (stereo not shown) [Compound ID 11, 4-methyl-5-butyldihydrofuran-2(3H)-one] stands 1.6 µM; under `c1cn2c(n1)CCCCCCCCCCC2` [Compound ID 64, 6,7,8,9,10,11,12,13,14,15-decahydro-5H-imidazo[1,2-a][1]azacyclotridecine], 14.6 µM.
In the case of `O=C1CCCCCCCCCCN1` [Compound ID 65, azacyclododecan-2-one], the IC50 worked out at 15.6 µM.
Take `CCCCCC1=CCCC1=O` [Compound ID 51, 2-pentylcyclopent-2-enone]: the IC50 came out at 8.3 µM.
The compound `CCCCCn1ccnc1` [Compound ID 28, 1-pentyl-1H-imidazole] had an IC50 of 4.2 µM.
`CC1CCC2(CCC(=O)O2)CC1` (stereo not shown) [Compound ID 69, 8-methyl-1-oxaspiro[4.5]decan-2-one]: the IC50 was 17.6 µM.
In the case of `CCCCCN1C(=O)CC[C@H]1C(=O)OCC` [Compound ID 19], the IC50 came to 3 µM.
`CCC=CCCC1(C)CCC(=O)O1` (mixture of isomers) [Compound ID 62, (E/Z)-5-(hex-3-enyl)-5-methyldihydrofuran-2(3H)-one] gave an IC50 of 12.5 µM.
Regarding `c1nc2c(o1)CCCCCCCCC2` [Compound ID 14, 5,6,7,8,9,10,11,12-octahydro-4H-cycloundeca[d]oxazole], inhibition was half-maximal at 2 µM (IC50).
In turn, `CC/C=C\C[C@@H]1C(=O)CC[C@@H]1CC(=O)OC` [Compound ID 25, (Z)-methyl 2-(3-oxo-2-(pent-2-enyl)cyclopentyl)acetate] returned an IC50 of 3.5 µM.
Compound `CCCCCC1C(=O)CCC1C` (stereo not shown) [Compound ID 32, 3-methyl-2-pentylcyclopentanone] had an IC50 of 4.8 µM.
`c1cn2c(n1)CCCCCCCCCC2` [Compound ID 53, 5,6,7,8,9,10,11,12,13,14-decahydroimidazo[1,2-a][1]azacyclododecine] had an IC50 of 8.5 µM.
The compound `c1nc2c(o1)CCCCCC2` [Compound ID 60, 4,5,6,7,8,9-hexahydrocycloocta[d]oxazole] came in with an IC50 of 11.4 µM.
Compound `c1nc2c([nH]1)CCCCCCCCCC2` [Compound ID 59, 4,5,6,7,8,9,10,11,12,13-decahydro-1H-cyclododeca[d]imidazole] came in with an IC50 of 11.5 µM.
Regarding `O=C1CCC2CCCCC2O1` (stereo not shown) [Compound ID 45, octahydrocoumarin], the IC50 was 6.6 µM.
The compound `CCCCCCC1=CCCC1=O` [Compound ID 30, 2-hexylcyclopent-2-enone] came in with a half-inhibitory concentration (IC50) of 4.5 µM.
In the case of `CCCCCCC1CCC(=O)O1` (stereo not shown) [Compound ID 47, 5-hexyldihydrofuran-2(3H)-one], inhibition was half-maximal at 7.2 µM (IC50).
Compound `CC/C=C\CCOC(=O)C1CCCC1=O` (stereo not shown) [Compound ID 61] gave a half-maximal inhibitory concentration (IC50) of 12.7 µM.
On the same count and under the same terms, the same measure for `CCCCCC1OC(=O)CC1C` (stereo not shown) [Compound ID 12, 4-methyl-5-pentyldihydrofuran-2(3H)-one]: 1.7 µM.
For `CC/C=C\CC1=C(C)CCC1=O` [Compound ID 10, (Z)-3-methyl-2-(pent-2-enyl)cyclopent-2-enone], half-maximal inhibition (IC50) was put at 1.6 µM.
The same measure, in the same setting: the same measure for `c1nnc2n1CCCCCCCCCCC2` [Compound ID 43, 6,7,8,9,10,11,12,13,14,15-decahydro-5H-[1,2,4]triazolo[4,3-a][1]azacyclotridecine]: 6.3 µM.
For `OCCCCn1ccnc1` [Compound ID 68, 4-(1H-imidazol-1-yl)butan-1-ol], the half-maximal inhibitory concentration (IC50) was found to be 16.1 µM.
`CCCCC/C=C/CC1CCCC1=O` (stereo not shown) [Compound ID 18, (E)-2-(oct-2-enyl)cyclopentanone]: half-maximal inhibition (IC50) required 2.8 µM.
`CCCCCC1=C(C)CCC1=O` [Compound ID 7, 2-pentyl-3-methylcyclopent-2-enone] returned an IC50 of 1.2 µM.
On the same count and under the same terms, under `CCCCC1CCC(=O)O1` (stereo not shown) [Compound ID 63, 5-butyldihydrofuran-2(3H)-one] stands 15.1 µM.
`CCOC(=O)CCCn1ccnc1` [Compound ID 49, ethyl 4-(1H-imidazol-1-yl)butanoate]: the IC50 was 7.7 µM.
Take `N#CCCCCn1ccnc1` [Compound ID 55, 5-(1H-imidazol-1-yl)pentanenitrile]: 9.5 µM corresponded to half-maximal inhibition (IC50).
`CCCCCCC1(C)CCC(=O)O1` (stereo not shown) [Compound ID 31, 5-hexyl-5-methyldihydrofuran-2(3H)-one] showed an IC50 of 4.6 µM.
In turn, `c1ncc2c(n1)CCCCCCCC2` [Compound ID 26, 5,6,7,8,9,10,11,12-octahydrocyclodeca[d]pyrimidine] yielded an IC50 of 3.7 µM.
In turn, `O=C1CCCCCCCCCCCN1` [Compound ID 36, azacyclotridecan-2-one] had an IC50 of 5.2 µM.
`c1nc2c([nH]1)CCCCCCCCC2` [Compound ID 35, 1,4,5,6,7,8,9,10,11,12-decahydrocycloundeca[d]imidazole] gave an IC50 of 5 µM.
Same read-out and setting: under `CC/C=C\CC1C(=O)CCC1C` (stereo not shown) [Compound ID 17] stands 2.8 µM.
Turning to `CCC1CCC2(CCC(=O)O2)CC1` (stereo not shown) [Compound ID 29, 8-ethyl-1-oxaspiro[4.5]decan-2-one], the half-inhibitory concentration (IC50) came out at 4.3 µM.
As to `c1cnc2c(n1)CCCCCCCCCC2` [Compound ID 42, 5,6,7,8,9,10,11,12,13,14-decahydrocyclododeca[b]pyrazine], it took 6.1 µM to reach half-maximal inhibition (IC50).
`CC/C=C/CC1=C(CC(=O)OC)CCC1=O` [Compound ID 52] registered a concentration for half-maximal inhibition (IC50) of 8.3 µM.
`CCCCCCC1CCCC1=O` (stereo not shown) [Compound ID 27, 2-hexylcyclopentanone] came in with an IC50 of 4.2 µM.
`CC/C=C\Cn1ccnc1` [Compound ID 54, (Z)-1-(pent-2-enyl)-1H-imidazole] registered an IC50 of 9.4 µM.
On the same count and under the same terms, under `CCCCCCC1=C(C)CCC1=O` [Compound ID 3, 2-hexyl-3-methylcyclopent-2-enone] stands 0.4 µM; under `CCCCCC12CC1(C)CCC2=O` (stereo not shown) [Compound ID 8], 1.4 µM.
In turn, `CCCCCC1C(=O)CCC1CC(=O)OC` (stereo not shown) [Compound ID 37, methyl 2-(3-oxo-2-pentylcyclopentyl)acetate] yielded an IC50 of 5.2 µM.

The same series, now with this note: read-out: CYP2A13 inhibitor activity IC50; substrate coumarin 0.006 mM, 60 min at 37° C.
For `CC(C)=CCn1ccnc1` [Compound ID 40, 1-(3-methylbut-2-enyl)-1H-imidazole], the IC50 worked out at 5.7 µM.
Consider `CC/C=C/CCn1ccnc1` [Compound ID 46, (E)-1-(hex-3-enyl)-1H-imidazole], for which the IC50 was 6.8 µM.
For `CC(C)CCn1ccnc1` [Compound ID 39, 1-isopentyl-1H-imidazole], the IC50 is 5.6 µM.

The target of another series is T2, CYP2A6 (Homo sapiens, UniProt P11509).
T2 construct: purchased BD Biosciences Gentest, USA
T2 sequence (P11509 1-494): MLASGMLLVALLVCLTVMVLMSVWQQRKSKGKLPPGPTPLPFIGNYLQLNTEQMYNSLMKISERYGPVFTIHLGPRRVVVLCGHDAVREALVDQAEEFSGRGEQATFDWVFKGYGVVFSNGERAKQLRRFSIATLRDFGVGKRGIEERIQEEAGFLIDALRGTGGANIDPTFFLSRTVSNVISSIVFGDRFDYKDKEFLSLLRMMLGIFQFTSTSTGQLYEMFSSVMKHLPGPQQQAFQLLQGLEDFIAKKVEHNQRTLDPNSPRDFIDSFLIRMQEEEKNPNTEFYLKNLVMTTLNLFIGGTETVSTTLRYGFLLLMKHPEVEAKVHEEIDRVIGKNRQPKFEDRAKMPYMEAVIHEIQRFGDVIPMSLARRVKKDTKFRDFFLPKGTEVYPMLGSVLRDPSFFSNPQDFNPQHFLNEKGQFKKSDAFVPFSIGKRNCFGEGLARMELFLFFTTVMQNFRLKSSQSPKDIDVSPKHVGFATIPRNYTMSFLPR
The experiment in a line: CYP2A6 inhibition, coumarin to Umbelliferone fluorescence assay in microsomes. Format: biochemical. Particulars: substrate coumarin 0.003 mM, 60 min at 37° C.; read-out: CYP2A6 inhibitor activity IC50. The method, then: Test compounds that inhibit the activity of CYP2A6 are identified by using the same principle as described in Example 28, first paragraph.
A test compound (details see list below) was incubated with CYP2A6 in the presence of a cytochrome P450 reductase. CYP2A6 and P450 reductase were employed in form of microsomes (BD Biosciences Gentest, USA). Microsomes were used which contained 2 pmoles CYP2A6 and an amount of NADPH-P450 reductase corresponding to cytochrome c reductase activity of 87 nmole/(min×mg protein). […] The concentration of the standard substrate coumarin was 0.003 mM.
The samples were analysed spectrofluorometrically according to the procedure described in Example 28.
Take `CCCCC1OC(=O)CC1C` (stereo not shown) [Compound ID 11, 4-methyl-5-butyldihydrofuran-2(3H)-one]: the IC50 was found to be 56 µM.
With `CCCCCn1ccnc1` [Compound ID 28, 1-pentyl-1H-imidazole], the IC50 came to 2 µM.
Regarding `CC/C=C\CC1=C(C)CCC1=O` [Compound ID 10, (Z)-3-methyl-2-(pent-2-enyl)cyclopent-2-enone], the IC50 is 54 µM.
For `CC/C=C\Cn1ccnc1` [Compound ID 54, (Z)-1-(pent-2-enyl)-1H-imidazole], the IC50 came out at 7 µM.
With `CCCCCCC1=C(C)CCC1=O` [Compound ID 3, 2-hexyl-3-methylcyclopent-2-enone], the IC50 was 13 µM.
